Assay results from the supplement of paper PMC10307832.

Columns and labels:
Test in all cases: relative viability (nuclei count vs DMSO), 5 days (fraction); higher = more cells survive
CAL-12T = tested on: CAL-12T
Outline: (§1)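 A single step with final 0.05% Triton X-100, 1% formaldehyde and 1 ug/ml Hoechst fixed the cells and stained nuclei 5 days after treatment. Lung cancer cell lines in 1536-well plates had been treated by pin tool the day after seeding with one drug alone or a fixed anchor-drug dose plus five library-drug doses (not always all listed) in √10 steps, and nuclei were counted on 4× images. Relative viability is the ratio of nuclei in treated wells to nuclei in vehicle wells, taken as the median of duplicate plates.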

SW 1573 = tested on: SW 1573
Outline: as §1

HCC-366 = tested on: HCC-366
Outline: as §1

NCI-H1755 = tested on: NCI-H1755
Outline: as §1

NCI-H1915 = tested on: NCI-H1915
Outline: as §1

EMC-BAC-2 = tested on: EMC-BAC-2
Outline: as §1

NCI-H522 = tested on: NCI-H522
Outline: as §1

NCI-H1395 = tested on: NCI-H1395
Outline: as §1

NCI-H727 = tested on: NCI-H727
Outline: as §1

COR-L 105 = tested on: COR-L 105
Outline: as §1

HOP-62 = tested on: HOP-62
Outline: as §1

NCI-H23 = tested on: NCI-H23
Outline: as §1

HARA = tested on: HARA
Outline: as §1

NCI-H2228 = tested on: NCI-H2228
Outline: as §1

A-427 = tested on: A-427
Outline: as §1

NCI-H2009 = tested on: NCI-H2009
Outline: as §1

LCLC-103H = tested on: LCLC-103H
Outline: as §1

HCC-827 = tested on: HCC-827
Outline: as §1

NCI-H1437 = tested on: NCI-H1437
Outline: as §1

SK-LU-1 = tested on: SK-LU-1
Outline: as §1

NCI-H460 = tested on: NCI-H460
Outline: as §1

In the case of `CCN(CC)CCCCNc1ncc2cc(-c3cc(OC)cc(OC)c3)c(NC(=O)NC(C)(C)C)nc2n1` + O=C(CCCCCCC(=O)Nc1ccccc1)NO [Vorinostat] (partner 1 µM), the relative viability (CAL-12T; first compound 0.01 µM) is reported as 0.784, the relative viability (CAL-12T; first compound 0.03162 µM) is reported as 0.702 and the relative viability (CAL-12T; first compound 0.1 µM) is reported as 0.766. For the same molecule, the relative viability (CAL-12T; first compound 0.3162 µM) was 0.778, the relative viability (CAL-12T; first compound 1 µM) was 0.845 and the relative viability (SW 1573; first compound 0.01 µM) was 0.79. It also gave a relative viability (SW 1573; first compound 0.03162 µM) of 0.959, a relative viability (SW 1573; first compound 0.1 µM) of 0.952 and a relative viability (SW 1573; first compound 0.3162 µM) of 0.707. It also gave a relative viability (SW 1573; first compound 1 µM) of 0.705, a relative viability (HCC-366; first compound 0.01 µM) of 0.414 and a relative viability (HCC-366; first compound 0.03162 µM) of 0.369. For the same molecule, the relative viability (HCC-366; first compound 0.1 µM) was 0.423, the relative viability (HCC-366; first compound 0.3162 µM) was 0.383 and the relative viability (HCC-366; first compound 1 µM) was 0.288. For the same molecule, the relative viability (NCI-H1755; first compound 0.01 µM) was 0.71, the relative viability (NCI-H1755; first compound 0.03162 µM) was 0.919 and the relative viability (NCI-H1755; first compound 0.1 µM) was 0.848. The relative viability (NCI-H1755; first compound 0.3162 µM) was 0.965, the relative viability (NCI-H1755; first compound 1 µM) was 0.746 and the relative viability (NCI-H1915; first compound 0.01 µM) was 0.452. The relative viability (NCI-H1915; first compound 0.03162 µM) was 0.531, the relative viability (NCI-H1915; first compound 0.1 µM) was 0.537 and the relative viability (NCI-H1915; first compound 0.3162 µM) was 0.456. It also gave a relative viability (NCI-H1915; first compound 1 µM) of 0.513, a relative viability (EMC-BAC-2; first compound 0.03162 µM) of 0.403 and a relative viability (EMC-BAC-2; first compound 0.1 µM) of 0.428. For the same molecule, the relative viability (EMC-BAC-2; first compound 0.3162 µM) was 0.758, the relative viability (EMC-BAC-2; first compound 1 µM) was 0.444 and the relative viability (NCI-H522; first compound 0.01 µM) was 0.891. The relative viability (NCI-H522; first compound 0.03162 µM) was 0.835, the relative viability (NCI-H522; first compound 0.1 µM) was 1.19 and the relative viability (NCI-H522; first compound 0.3162 µM) was 0.948. For the same molecule, the relative viability (NCI-H522; first compound 1 µM) was 0.962, the relative viability (NCI-H1395; first compound 0.01 µM) was 0.648 and the relative viability (NCI-H1395; first compound 0.03162 µM) was 0.786. It also gave a relative viability (NCI-H1395; first compound 0.1 µM) of 0.714, a relative viability (NCI-H1395; first compound 0.3162 µM) of 0.742 and a relative viability (NCI-H1395; first compound 1 µM) of 0.513. For the same molecule, the relative viability (NCI-H727; first compound 0.01 µM) was 1.2, the relative viability (NCI-H727; first compound 0.03162 µM) was 1.09 and the relative viability (NCI-H727; first compound 0.1 µM) was 1.47. For the same molecule, the relative viability (NCI-H727; first compound 0.3162 µM) was 1.23, the relative viability (NCI-H727; first compound 1 µM) was 1.23 and the relative viability (COR-L 105; first compound 0.01 µM) was 0.771. The relative viability (COR-L 105; first compound 0.03162 µM) was 0.774, the relative viability (COR-L 105; first compound 0.1 µM) was 0.981 and the relative viability (COR-L 105; first compound 0.3162 µM) was 0.796. The relative viability (COR-L 105; first compound 1 µM) was 0.805, the relative viability (HOP-62; first compound 0.01 µM) was 0.715 and the relative viability (HOP-62; first compound 0.03162 µM) was 0.595. It also gave a relative viability (HOP-62; first compound 0.1 µM) of 0.616, a relative viability (HOP-62; first compound 0.3162 µM) of 0.65 and a relative viability (HOP-62; first compound 1 µM) of 0.663. For the same molecule, the relative viability (NCI-H23; first compound 0.01 µM) was 0.615, the relative viability (NCI-H23; first compound 0.03162 µM) was 0.711 and the relative viability (NCI-H23; first compound 0.1 µM) was 0.715. For the same molecule, the relative viability (NCI-H23; first compound 0.3162 µM) was 0.467, the relative viability (NCI-H23; first compound 1 µM) was 0.581 and the relative viability (HARA; first compound 0.01 µM) was 0.406. For the same molecule, the relative viability (HARA; first compound 0.03162 µM) was 0.483, the relative viability (HARA; first compound 0.1 µM) was 0.528 and the relative viability (HARA; first compound 0.3162 µM) was 0.51. For the same molecule, the relative viability (HARA; first compound 1 µM) was 0.365, the relative viability (NCI-H2228; first compound 0.01 µM) was 0.643 and the relative viability (NCI-H2228; first compound 0.03162 µM) was 0.515. The relative viability (NCI-H2228; first compound 0.1 µM) was 0.807, the relative viability (NCI-H2228; first compound 0.3162 µM) was 0.794 and the relative viability (NCI-H2228; first compound 1 µM) was 0.595. For the same molecule, the relative viability (A-427; first compound 0.01 µM) was 0.806, the relative viability (A-427; first compound 0.03162 µM) was 0.919 and the relative viability (A-427; first compound 0.1 µM) was 1.02. The relative viability (A-427; first compound 0.3162 µM) was 0.926, the relative viability (A-427; first compound 1 µM) was 0.817 and the relative viability (NCI-H2009; first compound 0.01 µM) was 0.731. It also gave a relative viability (NCI-H2009; first compound 0.03162 µM) of 0.749, a relative viability (NCI-H2009; first compound 0.1 µM) of 0.78 and a relative viability (NCI-H2009; first compound 0.3162 µM) of 0.78. For the same molecule, the relative viability (NCI-H2009; first compound 1 µM) was 0.624, the relative viability (LCLC-103H; first compound 0.01 µM) was 0.776 and the relative viability (LCLC-103H; first compound 0.03162 µM) was 0.805. The relative viability (LCLC-103H; first compound 0.1 µM) was 0.775, the relative viability (LCLC-103H; first compound 0.3162 µM) was 0.788 and the relative viability (LCLC-103H; first compound 1 µM) was 0.769. The relative viability (HCC-827; first compound 0.01 µM) was 0.883, the relative viability (HCC-827; first compound 0.03162 µM) was 0.969 and the relative viability (HCC-827; first compound 0.1 µM) was 0.866. The relative viability (HCC-827; first compound 0.3162 µM) was 0.937, the relative viability (HCC-827; first compound 1 µM) was 0.674 and the relative viability (NCI-H1437; first compound 0.01 µM) was 0.88. For the same molecule, the relative viability (NCI-H1437; first compound 0.03162 µM) was 0.821, the relative viability (NCI-H1437; first compound 0.1 µM) was 0.827 and the relative viability (NCI-H1437; first compound 0.3162 µM) was 0.948. For the same molecule, the relative viability (NCI-H1437; first compound 1 µM) was 0.82, the relative viability (SK-LU-1; first compound 0.01 µM) was 0.922 and the relative viability (SK-LU-1; first compound 0.03162 µM) was 0.795. The relative viability (SK-LU-1; first compound 0.1 µM) was 0.782, the relative viability (SK-LU-1; first compound 0.3162 µM) was 0.973 and the relative viability (SK-LU-1; first compound 1 µM) was 0.67. For the same molecule, the relative viability (NCI-H460; first compound 0.01 µM) was 0.817, the relative viability (NCI-H460; first compound 0.03162 µM) was 0.793 and the relative viability (NCI-H460; first compound 0.1 µM) was 1.39. For the same molecule, the relative viability (NCI-H460; first compound 0.3162 µM) was 0.763 and the relative viability (NCI-H460; first compound 1 µM) was 0.557.
